Patent US20180072739A1, “CO-CRYSTALS OF A BRUTON'S TYROSINE KINASE INHIBITOR” (Pharmacyclic LLC, priority 2015, published 2018)
Values after ≈ are worked out from the molar mass of the structure shown.

Assay: physchem
Conditions: water, 25 °C, thermodynamic from solid
Protocol: The suspension was equilibrated at 25° C. for 2 hours with aliquots sampled at 30, 60 and 120 min; the pH was measured at each time point. The suspension was then filtered through a glass fibre C filter. The filtrate was then diluted by an appropriate factor. Quantitation was by HPLC with reference to a standard solution of approximately 0.2 mg/mL in CH3CN:water. Different volumes of the standard, diluted and undiluted sample solutions were injected. […]

solubility at 30 min: ~1640 µg/mL (≈ 3.72 mM)
solubility at 60 min: ~1640 µg/mL (≈ 3.72 mM)
solubility at 120 min: ~1690 µg/mL (≈ 3.84 mM)
Compound: C=CC(=O)N1CCC[C@@H](n2nc(-c3ccc(Oc4ccccc4)cc3)c3c(N)ncnc32)C1 [Compound 1, 1-((R)-3-(4-amino-3-(4-phenoxyphenyl)-1H-pyrazolo[3,4-d]pyrimidin-1-yl)piperidin-1-yl)prop-2-en-1-one]
